Experiments:
Assay type in all cases: functional
[1] = Local anaesthetic activity in rat sciatic nerve assessed as time required to decrease compound action potential to 50 % relative to Lidocaine; set-up: scale not given: the % may be the effect or the level left
[2] = Local anaesthetic activity in rat sciatic nerve assessed as time required to decrease compound action potential to 100 %
[3] = Local anaesthetic activity in rat sciatic nerve assessed as time required to decrease compound action potential to recover to 50 %
[4] = Local anaesthetic activity in rat sciatic nerve assessed as time required to decrease compound action potential to 50 %
[5] = Local anaesthetic activity in rat sciatic nerve assessed as time required to decrease compound action potential to 100 % relative to Lidocaine; set-up: scale not given: the % may be the effect or the level left
[6] = Local anaesthetic activity in rat sciatic nerve assessed as vitality time
[7] = Local anaesthetic activity in rat sciatic nerve assessed as time required to decrease compound action potential to 100 % at 1.5%
[8] = Local anaesthetic activity in rat sciatic nerve assessed as time required to decrease compound action potential to 50 % at 1.5%
[9] = Local anaesthetic activity in rat sciatic nerve assessed as time required to decrease compound action potential to 100 % at 1.5% relative to Lidocaine; set-up: scale not given: the % may be the effect or the level left
[10] = Local anaesthetic activity in rat sciatic nerve assessed as vitality time at 1.5%
[11] = Local anaesthetic activity in rat sciatic nerve assessed as time required to decrease compound action potential to 50 % at 1.5% relative to Lidocaine; set-up: scale not given: the % may be the effect or the level left
[12] = Local anaesthetic activity in rat sciatic nerve assessed as time required to decrease compound action potential to recover to 50 % at 1.5%

SMILES | Activity [1] | IT100 [2] | RT50 [3] | IT50 [4] | Activity [5] | VT50 [6] | IT100 [7] | IT50 [8] | Activity [9] | VT50 [10] | Activity [11] | RT50 [12]
CCNC(C)C(=O)Nc1nsc2ccccc12 (stereo not drawn) | 74.8% | 12.9 min | 100 min | 4.2 min | 108.5% | 861 min | – | – | – | – | – | –
CC(C(=O)Nc1nsc2ccccc12)N1CCCCC1 (stereo not drawn) | 21.7% | 20.9 min | 58 min | 8.9 min | 73.7% | 500 min | – | – | – | – | – | –
Cc1ccc2snc(NC(=O)C(C)NC3CCCCC3)c2c1 (stereo not drawn) | 8.1% | 42.5 min | – | 39 min | 32.9% | – | – | – | – | – | – | –
O=C(CN1CCCC1)Nc1nsc2ccccc12 | 62.8% | 14 min | 105 min | 5 min | 100% | 610 min | 28.3 min | 11.9 min | 49.5% | 705.5 min | 26.4% | 101.5 min
CCN(CC)CC(=O)Nc1nsc2ccccc12 | – | – | – | – | – | – | 53.9 min | 12 min | 26% | 600 min | 26.2% | 121.5 min
Cc1ccc2snc(NC(=O)C(C)N3CCCCC3)c2c1 (stereo not drawn) | 28.5% | 37 min | – | 11 min | 37.8% | – | – | – | – | – | – | –
CCNCCC(=O)Nc1nsc2ccccc12 | 12% | 79.5 min | 154.8 min | 26.1 min | 17.6% | 400.8 min | – | – | – | – | – | –
O=C(CN1CCC(c2ccccc2)CC1)Nc1nsc2ccccc12 | 17% | – | – | 18.5 min | – | – | – | – | – | – | – | –
O=C(CN1CCCCC1)Nc1nsc2ccccc12 | 44.9% | 16 min | 142.7 min | 7 min | 87.5% | 500 min | 23.4 min | 8.05 min | 59.8% | 555.8 min | 39% | 141.2 min
CC(C(=O)Nc1nsc2ccccc12)N(C)C (stereo not drawn) | 18.8% | 14 min | 77 min | 7.4 min | 70% | 690 min | – | – | – | – | – | –
CN(C)CC(=O)Nc1nsc2ccccc12 | 29.9% | – | 100 min | 10.5 min | – | 250 min | – | – | – | – | – | –
CC1CCN(CC(=O)Nc2nsc3ccccc23)CC1 | 12.3% | 37.45 min | 122 min | 25.5 min | 37.4% | 930 min | – | – | – | – | – | –
CCCNCC(=O)Nc1nsc2ccccc12 | 31.4% | 17.5 min | 200 min | 10 min | 80% | 250 min | – | – | – | – | – | –
O=C(CCN1CCOCC1)Nc1nsc2ccccc12 | 44.9% | 17.9 min | 86 min | 7 min | 78.2% | – | – | – | – | – | – | –
CC(C)NCC(=O)Nc1nsc2ccccc12 | 25.9% | 30.2 min | 150 min | 12.13 min | 46.4% | – | – | – | – | – | – | –
CCNCC(=O)Nc1nsc2ccccc12 | 62.8% | 24.2 min | 76 min | 5 min | 57.9% | 600 min | 49.9 min | 11.5 min | 28.1% | 658 min | 27.3% | 135 min
CNCC(=O)Nc1nsc2ccccc12 | 31.4% | 34 min | 48 min | 10 min | 41.2% | 786 min | – | – | – | – | – | –

SMILES | Activity [1] | IT100 [2] | RT50 [3] | IT50 [4] | Activity [5] | VT50 [6] | IT100 [7] | IT50 [8] | Activity [9] | VT50 [10] | Activity [11] | RT50 [12]
CNC(C)C(=O)Nc1nsc2ccc(C)cc12 (stereo not drawn) | 47.6% | 20 min | 60 min | 6.6 min | 70% | 780 min | – | – | – | – | – | –
CNC(C)C(=O)Nc1nsc2ccccc12 (stereo not drawn) | 24.5% | 26.7 min | 68 min | 12.8 min | 121.7% | 450 min | – | – | – | – | – | –
CCN(CC)CC(=O)Nc1c(C)cccc1C [LIDOCAINE] | 100% | 14 min | 48.75 min | 3.14 min | 100% | 660 min | – | – | – | – | – | –
Cc1ccc2snc(NC(=O)C(C)N3CCCC3)c2c1 (stereo not drawn) | 179% | 17.5 min | 122 min | 1.75 min | 80% | 498 min | – | – | – | – | – | –
Cc1ccc2snc(NC(=O)C(C)N(C)C)c2c1 (stereo not drawn) | 25.7% | 23.75 min | 162 min | 11.6 min | 75.7% | 1012 min | – | – | – | – | – | –
CCNC(C)C(=O)Nc1nsc2ccc(C)cc12 (stereo not drawn) | 74.8% | 12.9 min | 100 min | 4.2 min | 108.5% | 702 min | – | – | – | – | – | –
Cc1ccc2snc(NC(=O)C(C)N3CCOCC3)c2c1 (stereo not drawn) | 140.8% | 20 min | 60 min | 2.23 min | 70% | 738 min | – | – | – | – | – | –
CCCNC(C)C(=O)Nc1nsc2ccc(C)cc12 (stereo not drawn) | 23.6% | 14.8 min | – | 7.4 min | 65.1% | 365 min | – | – | – | – | – | –
O=C(CCN1CCCC1)Nc1nsc2ccccc12 | 31.4% | 20.4 min | 136.6 min | 10 min | 68.6% | 870 min | – | – | – | – | – | –
O=C(CN1CCOCC1)Nc1nsc2ccccc12 | 57.1% | 10 min | 88 min | 5.5 min | 140% | 511 min | 19 min | 8.1 min | 26% | 666.7 min | 26.2% | 40 min
CC(NC1CCCCC1)C(=O)Nc1nsc2ccccc12 (stereo not drawn) | 44.9% | 25.3 min | 52.3 min | 5.8 min | 63.6% | – | – | – | – | – | – | –
CC(C(=O)Nc1nsc2ccccc12)N1CCCC1 (stereo not drawn) | 40.8% | 11.6 min | 135 min | 7.7 min | 120.7% | 600 min | – | – | – | – | – | –
CCN(CC)C(C)C(=O)Nc1nsc2ccccc12 (stereo not drawn) | 49.8% | 14.1 min | 57.7 min | 3.85 min | 84.8% | 404.2 min | – | – | – | – | – | –
CCCNC(C)C(=O)Nc1nsc2ccccc12 (stereo not drawn) | 31.4% | 24.1 min | 88.9 min | 5.3 min | 70% | 750 min | – | – | – | – | – | –
CC(C(=O)Nc1nsc2ccccc12)N1CCOCC1 (stereo not drawn) | 26.6% | 23 min | 126 min | 11.8 min | 60.9% | 350 min | – | – | – | – | – | –
CNCCC(=O)Nc1nsc2ccccc12 | 29.2% | 20.5 min | 136 min | 10.75 min | 68.3% | 839 min | – | – | – | – | – | –

From ChEMBL document CHEMBL1153863, “Evaluation of the local anaesthetic activity of 3-aminobenzo[d]isothiazole derivatives using the rat sciatic nerve model” (2009)
